Experimental data as given in patent publication US10947188B2, “Small molecule ferroptosis inducers” (THE TRUSTEES OF COLUMBIA UNIVERSITY IN THE CITY OF NEW YORK, priority 2016, dated 2021).
Read-outs that look alike come from different tables or passages of the source.

Tested on: HT-1080
Assay: Modulatory profiling: Alamar Blue viability, lethal compound cotreated with death modulator (EC50, AUC); as to AUC HT.BHA: reference of the scale not given here; as to AUC HT.EGTA: reference of the scale not given here
Format: cell-based
Parameters: AUC, modulator HT.3MA / AUC, modulator HT.ALLN / AUC HT.ATA / AUC HT.ActD / AUC HT.BHA / AUC HT.BHT / AUC HT.BocD / AUC HT.CHX / AUC HT.Co2+ / AUC HT.DPQ / AUC HT.EGTA / AUC HT.Lmim / AUC HT.NAD+ / AUC HT.Nec-1 / AUC HT.SP600125 / AUC HT.TLCK / AUC HT.U0126: unit not given beside the values
Settings: for AUC HT.ATA: HT-1080, modulator ATA; for AUC HT.ActD: HT-1080, modulator ActD; for AUC HT.BHA: HT-1080, modulator BHA; for AUC HT.BHT: HT-1080, modulator BHT; for AUC HT.BocD: HT-1080, modulator BocD; for AUC HT.CHX: HT-1080, modulator CHX; for AUC HT.Co2+: HT-1080, modulator Co2+; for AUC HT.CspA: HT-1080, modulator CspA; for AUC HT.DPQ: HT-1080, modulator DPQ; for AUC HT.Gd3+: HT-1080, modulator Gd3+; for AUC HT.LNAME: HT-1080, modulator LNAME; for AUC HT.Lmim: HT-1080, modulator Lmim; for AUC HT.NAD+: HT-1080, modulator NAD+; for AUC HT.NMMA: HT-1080, modulator NMMA; for HT.atoc (AUC) / HT.bCarotene (AUC) / HT.deferox (AUC) / HT.digoxin (AUC) / HT.trolox (AUC) / HT.zVAD (AUC): HT-1080; for HT.atoc (AUC): modulator atoc; for HT.bCarotene (AUC): modulator bCarotene; for HT.deferox (AUC): modulator deferox; for HT.digoxin (AUC): modulator digoxin; for HT.trolox (AUC): modulator trolox; for HT.zVAD (AUC): modulator zVAD; for AUC, modulator HT.3MA / AUC, modulator HT.ALLN: HT-1080 cells, modulatory profile value (AUC); for AUC, modulator HT.3MA: lethal compound cotreated with modulator 3MA; for AUC, modulator HT.ALLN: lethal compound cotreated with modulator ALLN

Row | Compound | AUC HT.ATA | AUC HT.ActD | AUC HT.BHA | AUC HT.BHT | AUC HT.BocD | AUC HT.CHX | AUC HT.Co2+ | AUC HT.CspA | AUC HT.DPQ | AUC HT.Gd3+ | AUC HT.LNAME | AUC HT.Lmim | AUC HT.NAD+ | AUC HT.NMMA | HT.atoc (AUC) | HT.bCarotene (AUC) | HT.deferox (AUC) | HT.digoxin (AUC) | HT.trolox (AUC) | HT.zVAD (AUC) | other results
1 | Cc1cccnc1Nc1nc(-c2ccccn2)cs1 [CIL13] | 0.04672 | −0.04327 | −0.06288 | −0.104 | 0.09941 | 0.03999 | 0.2924 | 0.06243 | −0.01515 | −0.03072 | −0.07962 | −0.06102 | −0.04462 | −0.04118 | 0.1029 | 0.01006 | 0.05411 | 0.03512 | −0.03975 | 0.01164 | AUC HT.EGTA (HT-1080, modulator EGTA): 0.08353; AUC, modulator HT.3MA: 0.02535; AUC, modulator HT.ALLN: 0.01646; effect of cobalt (II) on lethality (modulatory profiles, CoCl2 supplementation): inhibited by cobalt (II)
2 | CCCS(=O)(=O)c1nnnn1-c1cccc(OC)c1 [CIL15] | −0.002809 | 0.01242 | −0.03993 | −0.1489 | 0.1021 | 0.06342 | 0.1397 | −0.007032 | −0.02394 | −0.03881 | 0.001309 | −0.04837 | 0.01762 | −0.01943 | 0.1224 | −0.003906 | 0.04237 | −0.01238 | −0.02956 | −0.04682 | AUC HT.EGTA (HT-1080, modulator EGTA): −0.0006158; AUC, modulator HT.3MA: 0.0263; AUC, modulator HT.ALLN: 0.0001245
3 | C[S+]([O-])c1nc(-c2ccc(Br)cc2)cc(-c2ccccc2)c1C#N (stereo not shown) [CIL17] | −0.0157 | −0.03982 | −0.02052 | −0.138 | 0.0313 | 0.06579 | −0.008436 | −0.03354 | −0.02303 | −0.04318 | 0.02242 | −0.0132 | 0.04423 | −0.02639 | 0.145 | −0.005211 | 0.02894 | −0.003189 | 0.004595 | 0.008536 | AUC HT.EGTA (HT-1080, modulator EGTA): 0.001857; AUC, modulator HT.3MA: 0.01558; AUC, modulator HT.ALLN: 0.03631
4 | CCCCNc1cc(C)nc(NCc2ccccc2)n1 [CIL18] | 0.001415 | 0.0184 | −0.08703 | −0.1394 | 0.06607 | 0.1179 | 0.1598 | −0.04827 | −0.01276 | −0.03302 | 0.01329 | −0.004987 | 0.09493 | −0.02918 | 0.1295 | −0.0001406 | −0.009951 | −0.004198 | −0.01205 | 0.0101 | AUC HT.EGTA (HT-1080, modulator EGTA): −0.009461; AUC, modulator HT.3MA: 0.01461; AUC, modulator HT.ALLN: 0.07303
5 | O=c1c(N2CCCC2)c(Cl)cnn1-c1ccccc1 [CIL20] | −0.001276 | −0.006608 | 0.0001715 | −0.08075 | 0.01009 | 0.1212 | 0.1205 | −0.05648 | −0.03779 | −0.02607 | 0.01703 | 0.002914 | 0.05985 | −0.0209 | 0.0292 | 0.008618 | 0.03912 | 0.01851 | 0.03002 | −0.02079 | AUC HT.EGTA (HT-1080, modulator EGTA): −0.01805; AUC, modulator HT.3MA: 0.004881; AUC, modulator HT.ALLN: 0.09673
6 | Cc1cccc(-n2ncc(Cl)c(Cl)c2=O)c1 [CIL22] | 0.05908 | −0.02402 | 0.001925 | −0.05238 | 0.008628 | 0.01938 | −0.03478 | −0.03611 | −0.00934 | −0.004534 | 0.04608 | 0.01659 | 0.01014 | 0.01444 | 0.04912 | −0.01174 | 0.06507 | 0.05675 | −0.004921 | 0.02835 | AUC HT.EGTA: −0.01254; AUC, modulator HT.3MA: −0.01606; AUC, modulator HT.ALLN: 0.02849
7 | Cc1ccc(O)c(/N=C/C=C/c2cccc(Br)c2)c1 [CIL27] | 0.04845 | 0.03171 | −0.0156 | −0.05537 | 0.003288 | 0.04576 | 0.04606 | −0.03639 | 0.02307 | −0.0168 | 0.001204 | −0.001055 | −0.0034 | −0.01331 | 0.04362 | −0.01166 | 0.1441 | 0.001262 | −0.05943 | −0.01508 | AUC HT.EGTA (HT-1080, modulator EGTA): 0.02604; AUC, modulator HT.3MA: 0.0766; AUC, modulator HT.ALLN: 0.1636
8 | CC(C)=CCCC1=CCC(CNCCCN(C)C)C(C)C1 (stereo not shown) [CIL28] | 0.06113 | −0.01352 | −0.1362 | −0.1108 | 0.01462 | 0.0328 | −0.03292 | −0.01858 | 0.04404 | −0.02583 | −0.0045 | 0.001311 | 0.007089 | −0.009763 | 0.1068 | −0.03341 | −0.04312 | −0.007104 | −0.03025 | −0.009003 | AUC HT.EGTA (HT-1080, modulator EGTA): 0.005868; AUC, modulator HT.3MA: 0.0937; AUC, modulator HT.ALLN: 0.04719
9 | O=C(/C=C/c1cccc(NC(=O)c2cccs2)c1)c1ccccc1 [CIL33] | 0.04655 | −0.03269 | −0.02938 | −0.1089 | 0.006307 | 0.06763 | 0.1418 | −0.03213 | 0.02728 | −0.02182 | 0.003047 | −0.007068 | −0.0189 | −0.002248 | 0.04094 | −0.01651 | 0.1056 | −0.03413 | −0.05079 | 0.03457 | AUC HT.EGTA (HT-1080, modulator EGTA): −0.007461; AUC, modulator HT.3MA: 0.08789; AUC, modulator HT.ALLN: 0.04123
